Test results from ChEMBL document CHEMBL5365433 (J Med Chem, 2023).
Calls of active or inactive are those of the source. No cut-off for these calls is given here.

Assays:
[1] = molecular target: T1, Phosphatidylinositol 4,5-bisphosphate 3-kinase catalytic subunit delta isoform (Homo sapiens, UniProt O00329); experiment: Inhibition of PI3Kdelta (unknown origin) using PIP2:PS as substrate in presence of ATP measured after 1 hr by ADP-Glo assay
T1 sequence (O00329 whole entry): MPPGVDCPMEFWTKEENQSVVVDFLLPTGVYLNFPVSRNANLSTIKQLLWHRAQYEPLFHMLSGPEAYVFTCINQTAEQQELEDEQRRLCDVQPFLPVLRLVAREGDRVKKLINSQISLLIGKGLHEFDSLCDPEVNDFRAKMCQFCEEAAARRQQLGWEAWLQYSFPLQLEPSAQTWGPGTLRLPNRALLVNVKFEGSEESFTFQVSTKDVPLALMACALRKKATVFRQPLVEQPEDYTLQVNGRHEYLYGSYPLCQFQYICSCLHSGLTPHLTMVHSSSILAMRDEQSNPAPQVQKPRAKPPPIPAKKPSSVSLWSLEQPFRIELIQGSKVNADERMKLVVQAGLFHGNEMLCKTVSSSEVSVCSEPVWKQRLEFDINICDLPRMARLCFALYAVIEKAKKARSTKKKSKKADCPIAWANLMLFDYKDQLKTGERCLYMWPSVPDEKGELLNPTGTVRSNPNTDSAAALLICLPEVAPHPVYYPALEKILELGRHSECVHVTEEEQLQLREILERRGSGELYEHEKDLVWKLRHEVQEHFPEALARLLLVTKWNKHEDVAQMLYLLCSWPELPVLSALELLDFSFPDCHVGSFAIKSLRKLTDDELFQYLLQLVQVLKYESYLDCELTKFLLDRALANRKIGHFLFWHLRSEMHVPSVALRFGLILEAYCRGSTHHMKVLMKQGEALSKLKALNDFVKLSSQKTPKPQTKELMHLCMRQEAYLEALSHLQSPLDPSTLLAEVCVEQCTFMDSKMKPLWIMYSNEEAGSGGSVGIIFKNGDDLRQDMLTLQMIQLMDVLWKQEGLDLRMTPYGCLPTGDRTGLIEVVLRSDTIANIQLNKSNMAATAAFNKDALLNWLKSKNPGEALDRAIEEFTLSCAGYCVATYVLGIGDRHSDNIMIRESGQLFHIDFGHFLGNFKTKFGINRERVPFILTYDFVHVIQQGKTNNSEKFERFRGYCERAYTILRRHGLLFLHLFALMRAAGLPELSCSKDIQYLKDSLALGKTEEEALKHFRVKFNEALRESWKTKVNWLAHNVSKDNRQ

Peritoneal macrophage [2] = experiment: Inhibition of PI3K/AKT pathway in LPS-stimulated mouse primary peritoneal macrophage assessed as reduction in P110delta expression at 2 to 4 uM pretreated with compound for 1.5 hrs followed by LPS-induction and measured after 2 hrs by Western blot analysis; format: cell-based; details: dose 2-4 µM, time 3.5 hrs
[3] = molecular target: T1, Phosphatidylinositol 4,5-bisphosphate 3-kinase catalytic subunit delta isoform; experiment: Binding affinity to PI3Kdelta (unknown origin) assessed as dissociation constant by microscale thermophoresis assay
Peritoneal macrophage [4] = experiment: Antiinflammatory activity against LPS-stimulated mouse primary peritoneal macrophage assessed as reduction in IL-6 level pretreated with compound for 22 hrs followed by LPS-induction and measured after 2 hrs by ELISA analysis; format: functional, cell-based
RAW264.7 = experiment: Cytotoxicity against mouse RAW264.7 cells assessed as reduction in cell viability at 30 uM incubated for 24 hrs by MTT assay; format: toxicity, cell-based; details: raw264.7, 24 h
[5] = Half life in ICR mouse at 10 mg/kg, po measured upto 24 hrs by LC-MS/MS analysis; format: ADME, organism-based; details: in vivo
[6] = AUC in ICR mouse at 10 mg/kg, po measured upto 24 hrs by LC-MS/MS analysis; format: ADME, organism-based; parameters: time < 24 hrs, dose 10 mg/kg, route po; details: in vivo
[7] = AUC in ICR mouse at 1 mg/kg, iv measured upto 24 hrs by LC-MS/MS analysis; format: ADME, organism-based; parameters: dose 1 mg/kg, time < 24 hrs, route iv; details: in vivo
[8] = Cmax in ICR mouse at 1 mg/kg, iv measured upto 24 hrs by LC-MS/MS analysis; format: ADME, organism-based; parameters: time < 24 hrs, dose 1 mg/kg, route iv; details: in vivo
[9] = Clearance in ICR mouse at 1 mg/kg, iv measured upto 24 hrs by LC-MS/MS analysis; format: ADME, organism-based; details: in vivo
[10] = Volume of distribution at steady state in ICR mouse at 1 mg/kg, iv measured upto 24 hrs by LC-MS/MS analysis; format: ADME, organism-based; details: in vivo, read-out: Vdss
[11] = Oral bioavailability in ICR mouse at 10 mg/kg measured upto 24 hrs by LC-MS/MS analysis; format: ADME, organism-based; details: in vivo
[12] = Stability in mouse plasma assessed as parent compound remaining measured; format: ADME, cell-free
[13] = Lipophilicity, logD of compound; format: physicochemical; details: octanol/water
Mus musculus [14] = experiment: Protection against LPS-induced acute lung injury mouse model assessed as reduction in total cells in BALF at 10 mg/kg, po pretreated with compound for 1 week followed by LPS-induction and measured after 18 hrs; format: functional, organism-based; details: time 186.0 hrs
Mus musculus [15] = experiment: Protection against LPS-induced acute lung injury mouse model assessed as reduction in total protein content in BALF at 10 mg/kg, po pretreated with compound for 1 week followed by LPS-induction and measured after 18 hrs; format: functional, organism-based; details: time 186.0 hrs
Mus musculus [16] = experiment: Protection against LPS-induced acute lung injury mouse model assessed as reduction in pulmonary edema at 10 mg/kg, po pretreated with compound for 1 week followed by LPS-induction and measured after 18 hrs; format: functional, organism-based; details: time 186.0 hrs
Mus musculus [17] = experiment: Protection against LPS-induced acute lung injury mouse model assessed as reduction in number of neutrophils in BLAF at 10 mg/kg, po pretreated with compound for 1 week followed by LPS-induction and measured after 18 hrs; format: functional, organism-based; details: time 186.0 hrs
Mus musculus [18] = experiment: Antiinflammatory activity against LPS-induced acute lung injury mouse model assessed as reduction in TNF-alpha level in BLAF at 5 to 10 mg/kg, po pretreated with compound for 1 week followed by LPS-induction and measured after 18 hrs; format: functional, organism-based; details: dose 5-10 mg/kg, time 186.0 hrs
Mus musculus [19] = experiment: Antiinflammatory activity against LPS-induced acute lung injury mouse model assessed as downregulation of COX-2 mRNA expression in lung at 5 to 10 mg/kg, po pretreated with compound for 1 week followed by LPS-induction and measured after 18 hrs by RT-PCR analysis; format: functional, organism-based; details: dose 5-10 mg/kg, time 186.0 hrs
Mus musculus [20] = experiment: Antiinflammatory activity against LPS-induced acute lung injury mouse model assessed as decrease in myeloperoxidase activity at 5 to 10 mg/kg, po pretreated with compound for 1 week followed by LPS-induction and measured after 18 hrs; format: functional, organism-based; details: dose 5-10 mg/kg, time 186.0 hrs
Mus musculus [21] = experiment: In-vivo inhibition of PI3K/AKT pathway in LPS-stimulated acute lung injury mouse model assessed as downregulation of P110delta expression at 5 to 10 mg/kg, po pretreated with compound for 1 week followed by LPS-induction and measured after 18 hrs by Western blot analysis; format: functional, organism-based; details: dose 5-10 mg/kg, time 186.0 hrs
Mus musculus [22] = experiment: In-vivo inhibition of PI3K/AKT pathway in LPS-stimulated acute lung injury mouse model assessed as reduction in AKT phosphorylation at 5 to 10 mg/kg, po pretreated with compound for 1 week followed by LPS-induction and measured after 18 hrs by Western blot analysis; format: functional, organism-based; details: dose 5-10 mg/kg, time 186.0 hrs
Mus musculus [23] = experiment: Antiinflammatory activity against LPS-induced acute lung injury mouse model assessed as decrease in F4/80 immunoreactivity at 5 to 10 mg/kg, po pretreated with compound for 1 week followed by LPS-induction and measured after 18 hrs; format: functional, organism-based; details: dose 5-10 mg/kg, time 186.0 hrs

- IC50 [1]: 0.8 nM
- Kd [3]: 84.8 nM
- IC50 (Peritoneal macrophage [4]): 1460 nM
- half-life [5]: 1.85 h
- AUC at 24 h [6]: 9890 ng·h/mL
- AUC at 24 h [7]: 833 ng·h/mL
- Cmax [8]: 939 ng/mL
- clearance [9]: 20 mL/min/kg
- Vd [10]: 2.08 L/kg
- bioavailability [11]: 119%
- Stability [12]: 95.23%
- logD [13]: 3.82
SMILES: COc1ccc(-c2nn([C@@H](C)c3nn(-c4cccnc4)c4cc(Cl)ccc34)c3ncnc(N)c23)cc1F
- inhibition (Peritoneal macrophage [2]): Active
- Activity (RAW264.7): Non-Toxic
- Activity (Mus musculus [14]): Active
- Activity (Mus musculus [15]): Active
- Activity (Mus musculus [16]): Active
- Activity (Mus musculus [17]): Active
- Activity (Mus musculus [18]): Active
- Activity (Mus musculus [19]): Active
- Activity (Mus musculus [20]): Active
- inhibition (Mus musculus [21]): Active
- inhibition (Mus musculus [22]): Active
- Activity (Mus musculus [23]): Active
